ChEMBL document CHEMBL4665659, “Utilizing comprehensive and mini-kinome panels to optimize the selectivity of quinoline inhibitors for cyclin G associated kinase (GAK)” (Bioorg Med Chem Lett, 2019)
Active and inactive are the calls of the source. The rule behind the calls is not given here.

Columns and labels:
[1] = target: Epidermal growth factor receptor (Homo sapiens) (UniProt P00533); experiment: Inhibition of human wild type partial length EGFR (R669 to V1011 residues) expressed in bacterial expression system at 1 uM by Kinomescan method
[2] = target: T1, Activin receptor type-1 (Homo sapiens) (UniProt Q04771); experiment: Inhibition of human wild type partial length ALK2 (C188 to C509 residues) expressed in bacterial expression system at 1 uM by Kinomescan method relative to control
T1 sequence (whole entry): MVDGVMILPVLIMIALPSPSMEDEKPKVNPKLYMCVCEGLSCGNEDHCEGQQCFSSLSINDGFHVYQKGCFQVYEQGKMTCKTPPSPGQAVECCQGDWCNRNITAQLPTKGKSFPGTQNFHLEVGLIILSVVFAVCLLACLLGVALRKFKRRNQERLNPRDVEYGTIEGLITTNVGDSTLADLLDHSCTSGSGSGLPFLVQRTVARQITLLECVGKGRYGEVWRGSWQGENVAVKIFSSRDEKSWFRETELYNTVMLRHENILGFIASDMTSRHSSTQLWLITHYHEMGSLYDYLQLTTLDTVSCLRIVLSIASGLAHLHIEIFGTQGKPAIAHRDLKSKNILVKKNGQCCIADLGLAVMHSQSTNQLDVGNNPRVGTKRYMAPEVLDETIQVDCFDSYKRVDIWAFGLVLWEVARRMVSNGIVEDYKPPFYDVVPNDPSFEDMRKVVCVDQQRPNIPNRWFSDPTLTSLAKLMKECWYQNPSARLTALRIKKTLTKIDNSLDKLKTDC

[3] = target: T2, Ephrin type-A receptor 1 (Homo sapiens) (UniProt P21709); experiment: Inhibition of human wild type partial length EphA1 (V588 to I913 residues) expressed in bacterial expression system at 1 uM by Kinomescan method
T2 sequence (whole entry): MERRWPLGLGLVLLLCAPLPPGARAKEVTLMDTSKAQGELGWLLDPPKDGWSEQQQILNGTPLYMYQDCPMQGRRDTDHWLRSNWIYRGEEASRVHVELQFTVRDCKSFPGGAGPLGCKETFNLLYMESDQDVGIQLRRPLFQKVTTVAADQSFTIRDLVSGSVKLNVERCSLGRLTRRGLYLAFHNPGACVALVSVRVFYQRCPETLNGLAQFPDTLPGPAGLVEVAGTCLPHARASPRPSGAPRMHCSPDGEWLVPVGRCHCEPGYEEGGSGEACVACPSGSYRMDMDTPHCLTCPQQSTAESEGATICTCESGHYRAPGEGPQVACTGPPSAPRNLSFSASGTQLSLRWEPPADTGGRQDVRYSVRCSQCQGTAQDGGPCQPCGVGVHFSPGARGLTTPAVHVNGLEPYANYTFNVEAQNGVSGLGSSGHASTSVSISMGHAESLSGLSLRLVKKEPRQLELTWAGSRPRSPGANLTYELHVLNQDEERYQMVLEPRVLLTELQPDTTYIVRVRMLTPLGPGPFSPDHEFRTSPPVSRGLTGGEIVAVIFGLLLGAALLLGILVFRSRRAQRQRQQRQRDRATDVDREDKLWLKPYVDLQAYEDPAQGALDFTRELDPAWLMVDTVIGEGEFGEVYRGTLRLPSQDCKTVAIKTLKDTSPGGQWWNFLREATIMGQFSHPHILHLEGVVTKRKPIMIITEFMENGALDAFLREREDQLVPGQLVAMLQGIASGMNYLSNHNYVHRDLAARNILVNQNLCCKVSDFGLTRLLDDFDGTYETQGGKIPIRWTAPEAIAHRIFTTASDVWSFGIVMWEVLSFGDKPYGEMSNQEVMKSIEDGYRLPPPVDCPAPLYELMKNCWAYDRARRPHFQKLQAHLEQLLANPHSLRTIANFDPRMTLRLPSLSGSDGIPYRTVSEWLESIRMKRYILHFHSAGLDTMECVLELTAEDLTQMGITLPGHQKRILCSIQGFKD

Epidermal growth factor receptor (Homo sapiens), sequence (P00533 whole entry, the tested form may be a part): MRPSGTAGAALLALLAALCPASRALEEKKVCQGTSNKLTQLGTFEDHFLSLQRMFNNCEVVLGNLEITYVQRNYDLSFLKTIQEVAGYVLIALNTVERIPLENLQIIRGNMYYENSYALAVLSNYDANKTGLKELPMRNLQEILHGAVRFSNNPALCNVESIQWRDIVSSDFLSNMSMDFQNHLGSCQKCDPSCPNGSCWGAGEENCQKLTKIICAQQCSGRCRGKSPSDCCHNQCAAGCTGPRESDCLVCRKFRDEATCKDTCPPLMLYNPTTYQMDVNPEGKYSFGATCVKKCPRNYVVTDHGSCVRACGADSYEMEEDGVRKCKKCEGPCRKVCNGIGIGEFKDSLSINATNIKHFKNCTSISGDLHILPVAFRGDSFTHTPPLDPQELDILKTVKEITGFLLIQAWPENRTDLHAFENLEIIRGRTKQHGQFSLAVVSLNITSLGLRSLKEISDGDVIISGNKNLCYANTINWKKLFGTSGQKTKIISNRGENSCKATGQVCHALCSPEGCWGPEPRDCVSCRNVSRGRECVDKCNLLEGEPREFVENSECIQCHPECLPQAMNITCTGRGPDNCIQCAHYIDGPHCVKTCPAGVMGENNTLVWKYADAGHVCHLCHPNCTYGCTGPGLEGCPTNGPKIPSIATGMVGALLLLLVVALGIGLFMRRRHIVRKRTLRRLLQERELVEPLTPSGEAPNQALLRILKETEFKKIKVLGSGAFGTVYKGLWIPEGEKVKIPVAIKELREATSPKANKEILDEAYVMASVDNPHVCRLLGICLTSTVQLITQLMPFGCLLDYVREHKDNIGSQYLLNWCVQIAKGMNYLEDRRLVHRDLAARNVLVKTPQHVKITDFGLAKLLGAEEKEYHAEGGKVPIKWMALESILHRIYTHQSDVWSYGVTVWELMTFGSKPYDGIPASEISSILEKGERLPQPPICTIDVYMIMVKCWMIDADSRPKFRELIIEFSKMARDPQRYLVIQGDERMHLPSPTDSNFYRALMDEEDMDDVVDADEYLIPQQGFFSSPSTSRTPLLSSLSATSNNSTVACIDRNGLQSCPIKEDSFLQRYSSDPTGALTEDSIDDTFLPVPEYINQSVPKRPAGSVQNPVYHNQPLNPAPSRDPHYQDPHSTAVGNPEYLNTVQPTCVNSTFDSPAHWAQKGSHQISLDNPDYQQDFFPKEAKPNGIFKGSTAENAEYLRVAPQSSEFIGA

inhibition [1] | inhibition [2] | inhibition [3] | SMILES
inactive | 80% | Active | COc1cc(Nc2ccnc3cc(Br)ccc23)cc(OC)c1OC
inactive | 80% | Active | COc1cc(Nc2ccnc3cc(Cl)ccc23)cc(OC)c1OC

The remaining lines, values behind:

SMILES | inhibition [1] | inhibition [2] | inhibition [3]
COc1cc(Nc2ccnc3cc(I)ccc23)cc(OC)c1OC | inactive | 80% | Active
COc1cc(Nc2ccnc3cc(C#N)ccc23)cc(OC)c1OC | inactive | 80% | Active
COc1cc(Nc2ccnc3cc(C(F)(F)F)ccc23)cc(OC)c1OC | inactive | 80% | Active
